# Structures can show the parent of a compound that is named as a salt.
# Legend:
# Assay in all cases: MIC, NCCLS broth microdilution
# Type in all cases: cell-based
# Acinetobacter sp. J2 = details: for MIC of antibiotic at fixed inhibitor concentration (4 mg/L): Acinetobacter sp. J2, MIC of antibiotic compound 1 with the labelled bridged monobactam of formula II and clavulanate, 4 mg/L each; for MIC of antibiotic / MIC of antibiotic at fixed inhibitor concentration of 4 mg/L: Acinetobacter baumannii J2; for MIC of antibiotic: antibiotic alone, no inhibitor
# [1] = test system: Pseudomonas aeruginosa MK1184; details: for MIC of antibiotic at fixed inhibitor concentration (4 mg/L): MIC of antibiotic compound 1 with the labelled bridged monobactam of formula II and clavulanate, 4 mg/L each; for MIC of antibiotic: antibiotic alone, no inhibitor
# [2] = test system: Pseudomonas aeruginosa 1973E; details: for MIC of antibiotic at fixed inhibitor concentration (4 mg/L): MIC of antibiotic compound 1 with the labelled bridged monobactam of formula II and clavulanate, 4 mg/L each; for MIC of antibiotic: antibiotic alone, no inhibitor
# Description: Antimicrobial activity of the compounds and of their combinations was determined against a selection of organisms according to the standard procedures described by the National Committee for Clinical Laboratory Standards (National Committee for Clinical Laboratory. Standards (2000). Methods for Dilution Antimicrobial Susceptibility Tests for Bacteria That Grow Aerobically-Fifth Edition: Approved Standard M7-A5. NCCLS, Wayne, Pa., USA).
# In all cases the final concentration of DMSO incubated with the bacteria is less than or equal to 1%. […] Plates were incubated overnight at an appropriate temperature (30° C. or 37° C.) and optical densities assessed by eye. The MIC value is defined as the lowest compound concentration completely inhibiting visible growth of the test organism. When combinations between compounds of formula I with compounds of formula II and are evaluated the compounds of formula I are tested in dilution series as described above while the compounds of formula II and III-XIII were present in all wells at a constant concentration of 4 μg/mL each.
# Enterobacter cloacae P99 = details: for MIC of antibiotic at fixed inhibitor concentration (4 mg/L): MIC of antibiotic compound 1 with the labelled bridged monobactam of formula II and clavulanate, 4 mg/L each; for MIC of antibiotic: antibiotic alone, no inhibitor
# [3] = test system: Klebsiella pneumoniae CF104; details: for MIC of antibiotic at fixed inhibitor concentration (4 mg/L): MIC of antibiotic compound 1 with the labelled bridged monobactam of formula II and clavulanate, 4 mg/L each; for MIC of antibiotic: antibiotic alone, no inhibitor
# Serratia marcescens S6 = details: for MIC of antibiotic at fixed inhibitor concentration (4 mg/L): MIC of antibiotic compound 1 with the labelled bridged monobactam of formula II and clavulanate, 4 mg/L each; for MIC of antibiotic: antibiotic alone, no inhibitor
# [4] = test system: Stenotrophomonas malthophilia 1AC736; details: for MIC of antibiotic at fixed inhibitor concentration (4 mg/L): Stenotrophomonas malthophilia 1AC736, MIC of antibiotic compound 1 with the labelled bridged monobactam of formula II and clavulanate, 4 mg/L each; for MIC of antibiotic / MIC of antibiotic at fixed inhibitor concentration of 4 mg/L: Stenotrophomonas maltophilia 1AC736; for MIC of antibiotic: antibiotic alone, no inhibitor
MIC of antibiotic at fixed inhibitor concentration (4 mg/L) (Acinetobacter sp. J2),MIC of antibiotic at fixed inhibitor concentration (4 mg/L) [1],MIC of antibiotic at fixed inhibitor concentration (4 mg/L) [2],MIC of antibiotic at fixed inhibitor concentration (4 mg/L) (Enterobacter cloacae P99),MIC of antibiotic at fixed inhibitor concentration (4 mg/L) [3],MIC of antibiotic at fixed inhibitor concentration (4 mg/L) (Serratia marcescens S6),MIC of antibiotic at fixed inhibitor concentration (4 mg/L) [4],MIC of antibiotic (Acinetobacter sp. J2),MIC of antibiotic at fixed inhibitor concentration of 4 mg/L (Acinetobacter sp. J2; with 102 and clavulanate),MIC of antibiotic [1],MIC of antibiotic at fixed inhibitor concentration of 4 mg/L ([1]; with 102 and clavulanate),MIC of antibiotic [2],MIC of antibiotic at fixed inhibitor concentration of 4 mg/L ([2]; with 102 and clavulanate),MIC of antibiotic (Enterobacter cloacae P99),MIC of antibiotic at fixed inhibitor concentration of 4 mg/L (Enterobacter cloacae P99; with 102 and clavulanate),MIC of antibiotic [3],MIC of antibiotic at fixed inhibitor concentration of 4 mg/L ([3]; with 102 and clavulanate),MIC of antibiotic (Serratia marcescens S6),MIC of antibiotic at fixed inhibitor concentration of 4 mg/L (Serratia marcescens S6; with 102 and clavulanate),MIC of antibiotic [4],SMILES,other results
>32 µg/mL,>32 µg/mL,4 µg/mL,32 µg/mL,2 µg/mL,0.5 µg/mL,0.125 µg/mL,,,,,,,,,,,,,,"O=C(NCc1ccc(O)c(O)c1)N1CC[C@@H]2[C@H]1C(=O)N2S(=O)(=O)[O-].[Na+] [Compound 303, Sodium(1S,5R)-2-{N-[(3,4-dihydroxyphenyl)methyl]carbamoyl}-7-oxo-2,6-diazabicyclo[3.2.0]heptane-6-sulfonate]",
,,,,,,,>32 µg/mL,16 µg/mL,32 µg/mL,16 µg/mL,32 µg/mL,16 µg/mL,32 µg/mL,4 µg/mL,2 µg/mL,0.5 µg/mL,0.5 µg/mL,0.25 µg/mL,2 µg/mL,CC1(C)C(NC(=O)C(=NOCc2cc(=O)c(O)cn2O)c2csc(N)n2)C(=O)N1OCC(=O)O (centres unmarked) [Compound 33],MIC of antibiotic at fixed inhibitor concentration of 4 mg/L (Acinetobacter sp. J2; with 324 and clavulanate): 8 µg/mL; MIC of antibiotic at fixed inhibitor concentration of 4 mg/L ([1]; with 324 and clavulanate): 32 µg/mL; MIC of antibiotic at fixed inhibitor concentration of 4 mg/L ([2]; with 324 and clavulanate): 16 µg/mL; MIC of antibiotic at fixed inhibitor concentration of 4 mg/L (Enterobacter cloacae P99; with 324 and clavulanate): 16 µg/mL; MIC of antibiotic at fixed inhibitor concentration of 4 mg/L ([3]; with 324 and clavulanate): 0.5 µg/mL; MIC of antibiotic at fixed inhibitor concentration of 4 mg/L (Serratia marcescens S6; with 324 and clavulanate): 0.25 µg/mL; MIC of antibiotic at fixed inhibitor concentration of 4 mg/L ([4]; with 102 and clavulanate): 2 µg/mL; MIC of antibiotic at fixed inhibitor concentration of 4 mg/L ([4]; with 324 and clavulanate): 2 µg/mL
,,,,,,,>32 µg/mL,16 µg/mL,>32 µg/mL,16 µg/mL,>32 µg/mL,16 µg/mL,>32 µg/mL,>32 µg/mL,>32 µg/mL,32 µg/mL,>32 µg/mL,>32 µg/mL,>32 µg/mL,CC1C(NC(=O)C(=NOCc2cc(=O)c(O)cn2O)c2noc(N)n2)C(=O)N1S(=O)(=O)O (centres unmarked) [Compound 16],MIC of antibiotic at fixed inhibitor concentration of 4 mg/L ([4]; with 102 and clavulanate): 2 µg/mL
,,,,,,,>32 µg/mL,>32 µg/mL,>32 µg/mL,8 µg/mL,4 µg/mL,8 µg/mL,>32 µg/mL,0.25 µg/mL,>32 µg/mL,0.5 µg/mL,32 µg/mL,1 µg/mL,1 µg/mL,"C[C@H]1[C@H](NC(=O)/C(=N\OCc2cc(=O)c(O)cn2O)c2nc(N)sc2Cl)C(=O)N1OS(=O)(=O)O [Compound 29, (3S,4S)-3-{(2Z)-2-(2-amino-5-chloro(1,3-thiazol-4-yl))-3-[(1,5-dihydroxy-4-oxo(2-hydropyridyl))methoxy]-3-azaprop-2-enoylamino}-4-methyl-2-oxoazetidinyl hydroxysulfonate]",MIC of antibiotic at fixed inhibitor concentration of 4 mg/L (Acinetobacter sp. J2; with 102 and sulbactam): 2 µg/mL; MIC of antibiotic at fixed inhibitor concentration of 4 mg/L (Acinetobacter sp. J2; with 323 and sulbactam): 2 µg/mL; MIC of antibiotic at fixed inhibitor concentration of 4 mg/L ([1]; with 102 and sulbactam): 4 µg/mL; MIC of antibiotic at fixed inhibitor concentration of 4 mg/L ([1]; with 323 and sulbactam): 8 µg/mL; MIC of antibiotic at fixed inhibitor concentration of 4 mg/L ([2]; with 102 and sulbactam): 8 µg/mL; MIC of antibiotic at fixed inhibitor concentration of 4 mg/L ([2]; with 323 and sulbactam): 8 µg/mL; MIC of antibiotic at fixed inhibitor concentration of 4 mg/L (Enterobacter cloacae P99; with 102 and sulbactam): 8 µg/mL; MIC of antibiotic at fixed inhibitor concentration of 4 mg/L (Enterobacter cloacae P99; with 323 and sulbactam): 8 µg/mL; MIC of antibiotic at fixed inhibitor concentration of 4 mg/L ([3]; with 102 and sulbactam): 2 µg/mL; MIC of antibiotic at fixed inhibitor concentration of 4 mg/L ([3]; with 323 and sulbactam): 2 µg/mL; MIC of antibiotic at fixed inhibitor concentration of 4 mg/L (Serratia marcescens S6; with 102 and sulbactam): 8 µg/mL; MIC of antibiotic at fixed inhibitor concentration of 4 mg/L (Serratia marcescens S6; with 323 and sulbactam): 8 µg/mL; MIC of antibiotic at fixed inhibitor concentration of 4 mg/L ([4]; with 102 and clavulanate): 0.5 µg/mL; MIC of antibiotic at fixed inhibitor concentration of 4 mg/L ([4]; with 102 and sulbactam): 1 µg/mL; MIC of antibiotic at fixed inhibitor concentration of 4 mg/L ([4]; with 323 and sulbactam): 1 µg/mL
,,,,,,,>32 µg/mL,32 µg/mL,>32 µg/mL,>32 µg/mL,>32 µg/mL,>32 µg/mL,32 µg/mL,8 µg/mL,>32 µg/mL,8 µg/mL,8 µg/mL,1 µg/mL,16 µg/mL,"COn1cc(O)c(=O)cc1CON=C(C(=O)N[C@@H]1C(=O)N(S(=O)(=O)O)[C@H]1C)c1csc(N)n1 [Compound 5, (3S,4S)-3-{2-(2-amino(1,3-thiazol-4-yl))-3-[(5-hydroxy-1-methoxy-4-oxo(2-hydropyridyl))methoxy]-3-azaprop-2-enoylamino}-4-methyl-2-oxoazetidinesulfonic acid]",MIC of antibiotic at fixed inhibitor concentration of 4 mg/L ([4]; with 102 and clavulanate): 4 µg/mL

# Further lines, the molecule ahead of its results:
SMILES,MIC of antibiotic at fixed inhibitor concentration (4 mg/L) (Acinetobacter sp. J2),MIC of antibiotic at fixed inhibitor concentration (4 mg/L) [1],MIC of antibiotic at fixed inhibitor concentration (4 mg/L) [2],MIC of antibiotic at fixed inhibitor concentration (4 mg/L) (Enterobacter cloacae P99),MIC of antibiotic at fixed inhibitor concentration (4 mg/L) [3],MIC of antibiotic at fixed inhibitor concentration (4 mg/L) (Serratia marcescens S6),MIC of antibiotic at fixed inhibitor concentration (4 mg/L) [4],MIC of antibiotic (Acinetobacter sp. J2),MIC of antibiotic at fixed inhibitor concentration of 4 mg/L (Acinetobacter sp. J2; with 102 and clavulanate),MIC of antibiotic [1],MIC of antibiotic at fixed inhibitor concentration of 4 mg/L ([1]; with 102 and clavulanate),MIC of antibiotic [2],MIC of antibiotic at fixed inhibitor concentration of 4 mg/L ([2]; with 102 and clavulanate),MIC of antibiotic (Enterobacter cloacae P99),MIC of antibiotic at fixed inhibitor concentration of 4 mg/L (Enterobacter cloacae P99; with 102 and clavulanate),MIC of antibiotic [3],MIC of antibiotic at fixed inhibitor concentration of 4 mg/L ([3]; with 102 and clavulanate),MIC of antibiotic (Serratia marcescens S6),MIC of antibiotic at fixed inhibitor concentration of 4 mg/L (Serratia marcescens S6; with 102 and clavulanate),MIC of antibiotic [4],other results
"CN(C)c1ccc(NC(=O)N2CC[C@@H]3[C@H]2C(=O)N3S(=O)(=O)[O-])cc1.[Na+] [Compound 309, Sodium(1S,5R)-2-{N-[4-(dimethylamino)phenyl]carbamoyl}-7-oxo-2,6-diazabicyclo[3.2.0]heptane-6-sulfonate]",>32 µg/mL,>32 µg/mL,4 µg/mL,32 µg/mL,2 µg/mL,0.5 µg/mL,0.125 µg/mL,,,,,,,,,,,,,,
COc1ccc(NC(=O)N2CC[C@@H]3[C@H]2C(=O)N3S(=O)(=O)[O-])cc1.[Na+] [Compound 304],>32 µg/mL,>32 µg/mL,4 µg/mL,32 µg/mL,1 µg/mL,0.25 µg/mL,0.125 µg/mL,,,,,,,,,,,,,,
"O=C(NC1CC1)c1ccc[n+](CC(=O)N2CC[C@@H]3[C@H]2C(=O)N3S(=O)(=O)[O-])c1 [Compound 109, (1S,5R)-2-{2-[3-(N-cyclopropylcarbamoyl)pyridinium]acetyl}-7-oxo-2,6-diazabicyclo[3.2.0]heptane-6-sulfonate, inner salt]",4 µg/mL,16 µg/mL,4 µg/mL,32 µg/mL,0.5 µg/mL,0.125 µg/mL,0.125 µg/mL,,,,,,,,,,,,,,
"O=C(C[n+]1cccc(Cc2ccccc2)c1)N1CC[C@@H]2[C@H]1C(=O)N2S(=O)(=O)[O-] [Compound 123, (1S,5R)-7-oxo-2-{2-[3-benzylpyridinium]acetyl}-2,6-diazabicyclo[3.2.0]heptane-6-sulfonate, inner salt]",>32 µg/mL,32 µg/mL,4 µg/mL,32 µg/mL,0.125 µg/mL,0.25 µg/mL,0.125 µg/mL,,,,,,,,,,,,,,
"CC1(C)S[C@@H]2[C@H](NC(=O)[C@H](N)c3ccccc3)C(=O)N2[C@H]1C(=O)O [Ampicillin, ampicillin, reference compound]",,,,,,,,,,,,,,,,,,,,,MIC of antibiotic at fixed inhibitor concentration of 4 mg/L (Acinetobacter sp. J2; with sulbactam): 32 µg/mL; MIC of antibiotic at fixed inhibitor concentration of 4 mg/L ([1]; with sulbactam): >32 µg/mL; MIC of antibiotic at fixed inhibitor concentration of 4 mg/L ([2]; with sulbactam): >32 µg/mL; MIC of antibiotic at fixed inhibitor concentration of 4 mg/L (Enterobacter cloacae P99; with sulbactam): >32 µg/mL; MIC of antibiotic at fixed inhibitor concentration of 4 mg/L ([3]; with sulbactam): >32 µg/mL; MIC of antibiotic at fixed inhibitor concentration of 4 mg/L (Serratia marcescens S6; with sulbactam): >32 µg/mL; MIC of antibiotic at fixed inhibitor concentration of 4 mg/L ([4]; with sulbactam): 32 µg/mL
